Results from article PMC6510909 (Investigational New Drugs, 2018).
Like-named read-outs stand apart in the source and are kept apart here.

Test system: patients with previously untreated metastatic PDAC
Details: for Overall safety and tolerability: in combination with nab-P + G, up to 200 mg twice daily
Text: Patients were ≥ 18 years of age with previously untreated metastatic PDAC (measurable per Response Evaluation Criteria in Solid Tumors [RECIST] v 1.1); and an Eastern Cooperative Oncology Group (ECOG) performance status ≤1 and adequate hematologic, renal, and hepatic function. […] All patients provided written informed consent prior to enrollment.
Screening occurred within 21 days before the first MMB dose and included medical history and prior/concomitant medication review, physical exam and assessments of vital signs, ECOG performance status, pregnancy test (females), laboratory assessment, adverse event (AE) assessment, and staging CT or MRI. MMB was given orally once or twice daily as per the assigned dosing cohort: Cohort 1–100 mg MMB once daily; Cohort 2–150 mg MMB once daily; Cohort 3–200 mg MMB once daily; Cohort 4–150 mg MMB twice daily; and Cohort 5–200 mg MMB twice daily. […] Each dose cohort consisted of 3 patients, unless a dose-limiting toxicity (DLT) was experienced during the first 28 days of treatment. If one DLT was experienced, 3 additional patients were enrolled in the dose cohort. If a second DLT was experienced in the same cohort, MTD was considered to be exceeded. Dose escalation continued from Dose Level 2 to 3 to 4 to 5 if no DLT occurred in 3 evaluable subjects or < 2 DLTs occurred in 6 evaluable patients within each dose level.
Primary endpoint was incidence of DLT(s) based on the Common Terminology Criteria for Adverse Events (CTCAE) version 4.03. Secondary endpoints were overall survival (OS) (defined as the time interval from the first dose of MMB to death from any cause; patients lost to follow-up or who survived until the end of study were censored at the last date that they were known to be alive), progression-free survival (PFS) (defined as the time interval from the first dose of MMB to the earlier of the first documentation of definitive disease progression or death from any cause), overall response rate (ORR) (proportion of patients who achieved a complete or partial response [CR or PR, respectively] during MMB therapy), and duration of response (time from CR or PR to definitive disease progression or death from any cause).
Planned enrollment was up to 30 patients based on the standard 3 + 3 design. The efficacy analyses were conducted in all enrolled patients. Safety analyses were conducted in all enrolled patients who received ≥1 dose of study treatment. Descriptive summary statistics were provided for patient characteristics and safety variables. Kaplan-Meier estimates were used for OS, PFS, duration of response, and their 95% confidence intervals (CIs). The ORR was summarized for each dose level cohort with corresponding 2-sided 95% exact CIs based on the Clopper-Pearson method.

[1] = all cohorts, MMB + nab-P + G, n = 25
[2] = all cohorts, MMB + nab-P + G, AE consistent with JAK1/2 inhibition

Structure (SMILES): N#CCNC(=O)c1ccc(-c2ccnc(Nc3ccc(N4CCOCC4)cc3)n2)cc1 [MMB, momelotinib]
- Dose-limiting toxicity (Grade 3 diarrhea), patients (100 mg MMB once daily + nab-P + G): 1 patient
- Dose-limiting toxicity (Grade 3 diarrhea), patients (200 mg MMB once daily + nab-P + G): 1 patient
- Maximum tolerated dose (MTD) (MMB up to 200 mg twice daily + nab-P + G): not reached
- Deaths due to TEAEs [1]: no deaths
- Grade 3 MMB-related AE deep vein thrombosis [1]: 4.0%
- Grade 3 MMB-related AE dehydration [1]: 4.0%
- Grade 3 MMB-related AE diarrhea [1]: 12.0%
- Grade 3 MMB-related AE fatigue [1]: 4.0%
- Grade 3 MMB-related AE febrile neutropenia [1]: 4.0%
- Grade 3 MMB-related AE generalized edema [1]: 4.0%
- Grade 3 MMB-related AE hypertension [1]: 4.0%
- Grade 3 MMB-related AE malaise [1]: 4.0%
- Grade 3 MMB-related AE nephrolithiasis [1]: 4.0%
- Grade 3 MMB-related AE peripheral edema [1]: 4.0%
- Grade 3 MMB-related AE peripheral sensory motor neuropathy [1]: 8.0%
- Grade 3 MMB-related AE polyneuropathy [1]: 4.0%
- Grade 3 MMB-related AE respiratory distress [1]: 4.0%
- Grade 3 MMB-related AE thrombocytopenia [1]: 8.0%
- Grade 3 MMB-related AE tremor [1]: 4.0%
- Grade 3 or 4 AEs considered related to MMB [1]: 44%
- Grade 3 or 4 TEAEs, patients [1]: 88%
- Grade 3 or 4 neutropenia, patients [1]: 32%
- Grade 4 MMB-related event embolic stroke [1]: 4.0%
- Grade 4 MMB-related event increased blood uric acid [1]: 4.0%
- Grade 4 MMB-related event neutropenia [1]: 4.0%
- Neutropenia Grade 3, patients [1]: 16%
- Neutropenia Grade 4, patients [1]: 16%
- Patients with at least one treatment-emergent AE (TEAE) [1]: All patients
- Peripheral neuropathy attributed by investigators as related to the drug, patients [1]: 16%
- Peripheral neuropathy leading to discontinuation of MMB, patients [1]: 8%
- Peripheral sensory neuropathy attributed by investigators as related to the drug, patients [1]: 24%
- Pneumonia Grade 3, patients [1]: 24%
- SAEs considered related to MMB, patients [1]: 24%
- Serious AEs (SAEs), patients [1]: 72%
- TEAE abdominal pain, patients [1]: 44%
- TEAE alopecia, patients [1]: 40%
- TEAE anemia, patients [1]: 68%
- TEAE constipation, patients [1]: 52%
- TEAE decreased appetite, patients [1]: 40%
- TEAE diarrhea, patients [1]: 64%
- TEAE dysgeusia, patients [1]: 40%
- TEAE fatigue, patients [1]: 80%
- TEAE hypertension, patients [1]: 36%
- TEAE nausea, patients [1]: 76%
- TEAE peripheral edema, patients [1]: 48%
- TEAE peripheral neuropathy, patients [1]: 36%
- TEAE peripheral sensory neuropathy, patients [1]: 36%
- TEAE pyrexia, patients [1]: 56%
- TEAE vomiting, patients [1]: 52%
- Peripheral neuropathy, predefined AE of interest, patients (all cohorts, MMB + nab-P + G, n = 25, higher incidence at the two highest dose levels): 60%
- AE neutropenia, patients [2]: 32%
- AE thrombocytopenia, patients [2]: 20%
- Overall safety and tolerability: safe and well tolerated
- Overall safety and tolerability (listed as Momelotinib): well tolerated
- Maximum administered dose (MAD) (twice daily, + nab-P + G): 200 mg
